Results on 7 molecules are retold here after EP0979098B1, “METHOD OF TREATING HYPERPROLACTINEMIA AND PROLACTINOMAS” (Cedars-Sinai Medical Center, priority 1997, dated 1998).

The test system of this assay is Cells derived from six prolactin-secreting pituitary adenomas. Briefly: Prolactin secretion from cultured prolactinoma cells (immunoradiometric assay of PRL in medium). Type of assay: cell-based, human. The conditions noted are these: for effect on prolactin release (in words): adenomatous cell cultures of tumor 1, 3 hours; for response of prolactin secretion (in words): cells from the four large tumors (tumors 1, 2, 3 and 4); for suppressed prolactin release / effect on prolactin production (in words): tumor 4 cell cultures; for suppressed prolactin release: p<0.05.

Positions of bridges follow the written chain, without caps; N, C: chain ends. Non-standard residues stand in square brackets, D forms with d. Residues, ends and D or L forms follow the SMILES beside them.

In the case of `CC[C@@H]1NC(=O)[C@H](CCCCN)NC(=O)[C@@H](Cc2c[nH]c3ccccc23)NC(=O)[C@H](Cc2ccc(O)cc2)NC(=O)[C@@H](NC(=O)[C@H](N)Cc2ccccc2)CSSC[C@@H](C(=O)N[C@H](C(N)=O)[C@@H](C)O)NC1=O` [BIM-23023], the “effect on prolactin release (in words)” value is reported as “did not affect prolactin release”.

With `C[C@@H](O)[C@H](NC(=O)[C@H](Cc1ccccc1)NC(=O)[C@@H](NC(=O)[C@H](CCCCN)NC(=O)[C@@H](Cc1c[nH]c2ccccc12)NC(=O)[C@H](Cc1ccccc1)NC(=O)[C@H](Cc1ccccc1)NC(=O)[C@H](N)Cc1ccccc1)[C@@H](C)O)C(N)=O` [BIM-23052, H-D-Phe-Phe-Phe-D-Trp-Lys-Thr-Phe-Thr-NH2] (H-[dF]FF[dW]KTFT-NH2), the “response of prolactin secretion (in words)” value (“response” below) was “suppression of prolactin secretion” and the suppressed prolactin release entry is on record as “more than 30%”.

With `CC[C@@H]1NC(=O)[C@H](CCCCN)NC(=O)[C@@H](Cc2c[nH]c3ccccc23)NC(=O)[C@H](Cc2ccc(O)cc2)NC(=O)[C@@H](NC(=O)[C@@H](Cc2ccccc2)NC(=O)CN2CCN(CCO)CC2)CSSC[C@@H](C(=O)N[C@H](C(N)=O)[C@@H](C)O)NC1=O` [BIM-23190], the “effect on prolactin release (in words)” value is reported as “did not affect prolactin release”, the “response” value is given as “failed to respond” and the “effect on prolactin production (in words)” value is listed as “modestly stimulated prolactin production”.

For the molecule `CC[C@@H]1NC(=O)[C@H](CCCCN)NC(=O)[C@@H](Cc2c[nH]c3ccccc23)NC(=O)[C@H](Cc2ccc(O)cc2)NC(=O)[C@@H](NC(=O)[C@@H](Cc2ccccc2)NS(=O)(=O)CCN2CCN(CCO)CC2)CSSC[C@@H](C(=O)N[C@H](C(N)=O)[C@@H](C)O)NC1=O` [BIM-23197], the “effect on prolactin release (in words)” value was “did not affect prolactin release”, the “response” value was “failed to respond” and the “effect on prolactin production (in words)” value is “modestly stimulated prolactin production”.

Regarding `C[C@@H](O)[C@@H]1NC(=O)[C@H](CCCCN)NC(=O)[C@@H](Cc2c[nH]c3ccccc23)NC(=O)[C@H](Cc2ccccc2)NC(=O)[C@H](Cc2ccccc2)NC(=O)[C@@H](N)CSSC[C@@H](C(N)=O)NC(=O)[C@H](Cc2ccccc2)NC1=O` [BIM-23268] (H-CFF[dW]KTFC-NH2; disulfide 1-8), the “response” value was “suppression of prolactin secretion” and the suppressed prolactin release entry was “more than 30%”. For the same molecule, for the setting “tumor 2 cell cultures, 10 nM, p < 0.0005”, the “Prolactin release inhibited versus controls” value is on record as 38%. For the same molecule, the suppressed prolactin result (tumor 3 cell cultures, 10 nM and 100 nM, dose dependent, p < 0.05) is listed as “up to 29%”.

For the molecule `CC(C)[C@@H]1NC(=O)[C@H](CCCCN)NC(=O)[C@@H](Cc2c[nH]c3ccccc23)NC(=O)[C@H](Cc2ccc(O)cc2)NC(=O)[C@@H](NC(=O)[C@H](N)Cc2ccc3ccccc3c2)CSSC[C@@H](C(=O)N[C@H](C(N)=O)[C@@H](C)O)NC1=O` [Lanreotide], the “effect on prolactin release (in words)” value was “did not affect prolactin release” and the “response” value is reported as “failed to respond”.

For the molecule `C[C@@H](O)[C@@H]1NC(=O)[C@H](CCCCN)NC(=O)[C@@H](Cc2c[nH]c3ccccc23)NC(=O)[C@H](Cc2ccccc2)NC(=O)[C@@H](NC(=O)[C@H](N)Cc2ccccc2)CSSC[C@@H](C(=O)N[C@H](CO)[C@@H](C)O)NC1=O` [Octreotide], the “response” value is “failed to respond”.
